As usually defined, the Ki is the equilibrium dissociation constant of an inhibitor or competing ligand from its target. Low readings indicate higher affinity, high ones lower affinity.

The target of series [1] is T1, GST-ASPG (human ASPG, 60 kDa Lysophospholipase) (Homo sapiens, UniProt Q86U10).
T1 construct: full-length cDNA in pGEX-4T3, N-terminal GST tag kept, E. coli BL21, glutathione Sepharose
T1 sequence (Q86U10 1-573): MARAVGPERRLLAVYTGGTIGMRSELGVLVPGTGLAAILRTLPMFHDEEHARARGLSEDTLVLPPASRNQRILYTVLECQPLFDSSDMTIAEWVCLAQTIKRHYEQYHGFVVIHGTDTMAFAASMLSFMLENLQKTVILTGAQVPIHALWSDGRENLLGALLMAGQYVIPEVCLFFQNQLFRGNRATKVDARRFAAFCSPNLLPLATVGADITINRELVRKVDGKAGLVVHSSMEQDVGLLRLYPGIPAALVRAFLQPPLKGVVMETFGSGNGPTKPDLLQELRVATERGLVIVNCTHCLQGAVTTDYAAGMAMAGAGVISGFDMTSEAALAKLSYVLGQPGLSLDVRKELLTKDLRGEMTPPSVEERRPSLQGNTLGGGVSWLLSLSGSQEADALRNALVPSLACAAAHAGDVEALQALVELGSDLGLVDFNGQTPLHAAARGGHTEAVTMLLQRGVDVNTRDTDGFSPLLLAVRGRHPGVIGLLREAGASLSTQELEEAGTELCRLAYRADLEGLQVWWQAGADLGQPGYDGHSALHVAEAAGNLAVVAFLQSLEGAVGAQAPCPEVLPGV
Nature of the series: PAF acetylhydrolase assay kit (2-thio PAF, DTNB, […] nm). It is filed as biochemical. To be noted: 200 µM 2-thio-PAF, Tris/HCl pH 7.2, 10 min pre-incubation.

Series [2] addresses T1, GST-ASPG (human ASPG, 60 kDa Lysophospholipase). Nature of the series: Nessler ammonia assay, steady-state inhibition kinetics. The series is classed as biochemical.
Substrate in series [3]: NC(=O)C[C@H](N)C(=O)O
Nature of the series: Nessler ammonia assay, Hill fit. It is filed as biochemical, Homo sapiens. Particulars: Tris/HCl pH 8.6, 37 °C, 30 min, 3-39 mM substrate, sigmoidal kinetics, Hill slope 6.9.

As for `NC(=O)C[C@@H](N)C(=O)O` [D-asparagine], in series [1], the “residual PAF-AH activity at 40 and 200 mM” value is recorded as “PAF-AH activity of GST-ASPG was also significantly inhibited by D-asparagine”. In series [2], this molecule yielded a Ki of 71 mM.

B1: GST-ASPG (human ASPG, 60 kDa Lysophospholipase) (Homo sapiens) (protein)
chain: MARAVGPERRLLAVYTGGTIGMRSELGVLVPGTGLAAILRTLPMFHDEEHARARGLSEDTLVLPPASRNQRILYTVLECQPLFDSSDMTIAEWVCLAQTIKRHYEQYHGFVVIHGTDTMAFAASMLSFMLENLQKTVILTGAQVPIHALWSDGRENLLGALLMAGQYVIPEVCLFFQNQLFRGNRATKVDARRFAAFCSPNLLPLATVGADITINRELVRKVDGKAGLVVHSSMEQDVGLLRLYPGIPAALVRAFLQPPLKGVVMETFGSGNGPTKPDLLQELRVATERGLVIVNCTHCLQGAVTTDYAAGMAMAGAGVISGFDMTSEAALAKLSYVLGQPGLSLDVRKELLTKDLRGEMTPPSVEERRPSLQGNTLGGGVSWLLSLSGSQEADALRNALVPSLACAAAHAGDVEALQALVELGSDLGLVDFNGQTPLHAAARGGHTEAVTMLLQRGVDVNTRDTDGFSPLLLAVRGRHPGVIGLLREAGASLSTQELEEAGTELCRLAYRADLEGLQVWWQAGADLGQPGYDGHSALHVAEAAGNLAVVAFLQSLEGAVGAQAPCPEVLPGV
notes: full-length cDNA in pGEX-4T3, N-terminal GST tag kept, E. coli BL21, glutathione Sepharose
As for B1, the K0.5 in series [3] is 13 mM.
